# Data: patent US8648198B2, “Phenylethanolamine-based NMDA receptor antagonists” (priority 2011, dated 2014)
# Where two headings read alike, the source gives them in different places.
# Columns and labels:
# [1] = molecular target: T1, GluN1-1b (WT)/GluN2B (I82S) (Rattus norvegicus, UniProt P35439+Q00960, I82S); test: Ifenprodil dose-response, recordings from Xenopus oocytes; assay type: cell-based; conditions: mean ± s.d.
# T1 construct: expressed in transfected cells; host or cells: Xenopus oocytes (per the earlier reading)
# [2] = molecular target: T2, GluN1-1b (A75Q)/GluN2B (WT) (Rattus norvegicus, UniProt P35439+Q00960, A75Q); test: as above; assay type: cell-based; conditions: mean ± s.d.
# T2 construct: expressed in transfected cells; host or cells: Xenopus oocytes (per the earlier reading)
# [3] = molecular target: T3, GluN1-1b (F113S)/GluN2B (WT) (Rattus norvegicus, UniProt P35439+Q00960, F113S); test: as above; assay type: cell-based; conditions: mean ± s.d.
# T3 construct: expressed in transfected cells; host or cells: Xenopus oocytes (per the earlier reading)
# [4] = molecular target: T4, GluN1-1b (WT)/GluN2B (WT) (Rattus norvegicus, UniProt P35439+Q00960); test: as above; assay type: cell-based; conditions: mean ± s.d.
# T4 construct: expressed in transfected cells; host or cells: Xenopus oocytes (per the earlier reading)
# GluN1b ATD = test: Isothermal titration calorimetry (ITC), GluN1b ATD alone; assay type: binding, Xenopus laevis; conditions: GluN1b ATD individually injected with ifenprodil
# [5] = molecular target: T5, GluN1-4b (Asn70Cys)/GluN2B (Thr324Cys) (Rattus norvegicus, UniProt P35439+Q00960, N70C/T324C); test: Ion channel activity of cysteine mutant receptors by TEVC (R1-R1 cross-link); assay type: cell-based
# T5 construct: expressed in transfected cells
# Excerpt: (§1) To further validate the physiological relevance of the hetero-dimeric assembly, cysteine mutants at the subunit interface were engineered using the ifenprodil-bound GluN1b/GluN2B ATD structure as a guide in a context of the intact rat GluN1-4b/GluN2B receptors so that they would form spontaneous disulphide bonds if the mutated residues are proximal to each others. Toward this end, two pairs of cysteine mutants, GluN1-4b (Asn70Cys)/GluN2B (Thr324Cys) and GluN1-4b (Leu341Cys)/GluN2B (Asp210Cys) were designed, which “locked” the R1-R1 and R1-R2 interfaces, respectively FIG. 12a-b). The mutant receptors were then expressed in a mammalian cell culture, and analyzed for formation of disulphide-linked oligomers in western blots. When mutant receptors of one subunit were expressed with wild-type receptors of the other, they gave rise to monomeric bands (110 KDa and 170 KDa for GluN1-4b and GluN2B, respectively; arrow 2 and 3) identical to the wild-type GluN1-4b/GluN2B receptors in both reducing and non-reducing condition. […]
# (§2) To understand the functional effects of “locking” the R1-R1 and R1-R2 interactions in the GluN1b/GluN2B ATDs, the ion channel activities of the cysteine mutant receptors were measured by TEVC. […]
# GluN2B ATD = test: Isothermal titration calorimetry (ITC), GluN2B ATD alone; assay type: binding, Rattus Norvegicus; conditions: GluN2B ATD individually injected with ifenprodil
# [6] = molecular target: T6, GluN1-4b (Leu341Cys)/GluN2B (Asp210Cys) (Rattus norvegicus, UniProt P35439+Q00960, D210C/L320C); test: Ion channel activity of cysteine mutant receptors by TEVC (R1-R2 cross-link); assay type: cell-based; conditions: R1-R2 cross-link broken by application of DTT
# T6 construct: expressed in transfected cells
# Excerpt: as §1, §2
# [7] = molecular target: T7, GluN1-4b (Leu341Cys)/GluN2B (Asp210Cys) (Rattus norvegicus, UniProt P35439+Q00960); test: as above; assay type: cell-based; conditions: R1-R2 cross-link, non-reducing, even at 3 μM ifenprodil
# T7 construct: expressed in transfected cells
# Excerpt: as §1, §2
# [8] = molecular target: mixture of the GluN1b and GluN2B ATD proteins (Xenopus laevis (GluN1-4b ATD) / Rattus norvegicus (GluN2B ATD), UniProt A0A1L8F5J9+Q00960, E186G/INS190SKKRNYENLDQLSYDNKRGPK/N350Q/N61Q); test: Isothermal titration calorimetry (ITC), direct binding to mixed ATD proteins; design: species or system Xenopus laevis GluN1-4b / Rattus Norvegicus GluN2B
# [9] = molecular target: T8, GluN1-1a (WT)/GluN2B (WT) (Rattus norvegicus, UniProt P35439+Q00960); test: Ifenprodil dose-response, recordings from Xenopus oocytes; assay type: cell-based; conditions: mean ± s.d.
# T8 construct: expressed in transfected cells; host or cells: Xenopus oocytes (per the earlier reading)
# [10] = molecular target: T9, GluN1-1b (WT)/GluN2B (I111S) (Rattus norvegicus, UniProt P35439+Q00960, I111S); test: as above; assay type: cell-based; conditions: mean ± s.d.
# T9 construct: expressed in transfected cells; host or cells: Xenopus oocytes (per the earlier reading)
# [11] = molecular target: T10, GluN1/GluN2A receptors, GluN2A Met112Ile (Rattus norvegicus, UniProt P35439+Q00959, M112I); test: Ifenprodil sensitivity of mutant GluN1/GluN2A receptors; assay type: cell-based; conditions: GluN2A Met112Ile in GluN1/GluN2A receptors
# T10 construct: expressed in transfected cells
# Excerpt: Thus, the insensitivity of the GluN1/GluN2A receptors to phenylethanolamine may stem from a fundamental difference in a mode of subunit association between GluN1/GluN2A and GluN1/GluN2B at ATD.
# [12] = molecular target: T11, GluN1-1b (L135N)/GluN2B (WT) (Rattus norvegicus, UniProt P35439+Q00960, L135N); test: Ifenprodil dose-response, recordings from Xenopus oocytes; assay type: cell-based; conditions: mean ± s.d.
# T11 construct: expressed in transfected cells; host or cells: Xenopus oocytes (per the earlier reading)
# [13] = molecular target: T12, GluN1-1b (WT)/GluN2B (I111M) (Rattus norvegicus, UniProt P35439+Q00960, I111M); test: as above; assay type: cell-based; conditions: mean ± s.d.
# T12 construct: expressed in transfected cells; host or cells: Xenopus oocytes (per the earlier reading)
# [14] = molecular target: T13, GluN1-1b (WT)/GluN2B (Q110A) (Rattus norvegicus, UniProt P35439+Q00960, Q110A); test: as above; assay type: cell-based; conditions: mean ± s.d.
# T13 construct: expressed in transfected cells; host or cells: Xenopus oocytes (per the earlier reading)
# Sequence of mixture of the GluN1b and GluN2B ATD proteins (Q00960 31-394, stated change not applied, other chains not shown): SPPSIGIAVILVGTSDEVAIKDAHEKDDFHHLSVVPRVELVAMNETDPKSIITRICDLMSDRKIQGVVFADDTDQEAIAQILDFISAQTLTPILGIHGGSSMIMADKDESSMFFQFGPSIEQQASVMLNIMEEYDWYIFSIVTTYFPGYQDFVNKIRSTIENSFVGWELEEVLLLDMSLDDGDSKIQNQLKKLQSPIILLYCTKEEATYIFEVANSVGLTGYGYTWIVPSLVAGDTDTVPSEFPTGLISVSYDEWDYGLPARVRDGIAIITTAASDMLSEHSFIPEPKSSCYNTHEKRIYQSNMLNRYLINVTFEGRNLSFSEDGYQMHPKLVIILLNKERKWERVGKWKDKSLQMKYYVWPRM
# T7 sequence (Q00960 27-1482 D210C, other chains not shown): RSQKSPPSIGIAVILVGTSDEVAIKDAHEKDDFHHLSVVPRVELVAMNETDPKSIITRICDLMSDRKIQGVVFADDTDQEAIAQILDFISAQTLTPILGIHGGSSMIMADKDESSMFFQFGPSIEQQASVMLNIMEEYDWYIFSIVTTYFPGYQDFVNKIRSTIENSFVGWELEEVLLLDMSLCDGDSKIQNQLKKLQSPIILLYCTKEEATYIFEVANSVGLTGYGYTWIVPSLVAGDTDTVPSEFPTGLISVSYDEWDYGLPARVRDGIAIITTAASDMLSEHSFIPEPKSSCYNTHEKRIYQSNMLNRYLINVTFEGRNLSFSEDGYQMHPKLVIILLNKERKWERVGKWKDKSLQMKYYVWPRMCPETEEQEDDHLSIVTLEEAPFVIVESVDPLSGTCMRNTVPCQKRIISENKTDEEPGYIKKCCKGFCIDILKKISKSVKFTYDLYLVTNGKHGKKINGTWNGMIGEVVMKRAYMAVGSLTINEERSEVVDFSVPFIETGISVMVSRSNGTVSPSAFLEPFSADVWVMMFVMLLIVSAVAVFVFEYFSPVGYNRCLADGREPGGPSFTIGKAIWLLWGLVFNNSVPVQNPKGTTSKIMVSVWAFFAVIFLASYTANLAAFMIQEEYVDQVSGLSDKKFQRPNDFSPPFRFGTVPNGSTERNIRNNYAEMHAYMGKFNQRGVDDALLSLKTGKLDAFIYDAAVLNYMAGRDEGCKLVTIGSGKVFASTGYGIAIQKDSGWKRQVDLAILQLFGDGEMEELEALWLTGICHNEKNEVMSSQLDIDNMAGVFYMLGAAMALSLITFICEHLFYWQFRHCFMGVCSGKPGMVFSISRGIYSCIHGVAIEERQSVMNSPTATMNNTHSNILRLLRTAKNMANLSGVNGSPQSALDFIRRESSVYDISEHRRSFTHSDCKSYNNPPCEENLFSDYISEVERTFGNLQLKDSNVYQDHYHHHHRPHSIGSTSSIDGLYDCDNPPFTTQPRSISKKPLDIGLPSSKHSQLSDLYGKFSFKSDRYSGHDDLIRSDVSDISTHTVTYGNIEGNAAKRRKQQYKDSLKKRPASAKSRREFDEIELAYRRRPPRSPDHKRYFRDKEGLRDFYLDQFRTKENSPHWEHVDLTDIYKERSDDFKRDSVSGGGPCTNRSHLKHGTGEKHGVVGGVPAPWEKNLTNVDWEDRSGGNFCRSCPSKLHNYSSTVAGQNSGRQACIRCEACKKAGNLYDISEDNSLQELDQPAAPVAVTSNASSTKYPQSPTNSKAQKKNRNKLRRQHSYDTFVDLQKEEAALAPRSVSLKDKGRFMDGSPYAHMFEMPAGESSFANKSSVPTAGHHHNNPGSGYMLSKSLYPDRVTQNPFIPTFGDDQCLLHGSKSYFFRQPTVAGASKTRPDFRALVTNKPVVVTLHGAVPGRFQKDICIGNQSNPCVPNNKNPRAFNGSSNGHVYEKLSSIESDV
# T6 sequence (Q00960 27-1482 D210C, other chains not shown): as above
# T1 sequence (Q00960 27-1482 I82S, other chains not shown): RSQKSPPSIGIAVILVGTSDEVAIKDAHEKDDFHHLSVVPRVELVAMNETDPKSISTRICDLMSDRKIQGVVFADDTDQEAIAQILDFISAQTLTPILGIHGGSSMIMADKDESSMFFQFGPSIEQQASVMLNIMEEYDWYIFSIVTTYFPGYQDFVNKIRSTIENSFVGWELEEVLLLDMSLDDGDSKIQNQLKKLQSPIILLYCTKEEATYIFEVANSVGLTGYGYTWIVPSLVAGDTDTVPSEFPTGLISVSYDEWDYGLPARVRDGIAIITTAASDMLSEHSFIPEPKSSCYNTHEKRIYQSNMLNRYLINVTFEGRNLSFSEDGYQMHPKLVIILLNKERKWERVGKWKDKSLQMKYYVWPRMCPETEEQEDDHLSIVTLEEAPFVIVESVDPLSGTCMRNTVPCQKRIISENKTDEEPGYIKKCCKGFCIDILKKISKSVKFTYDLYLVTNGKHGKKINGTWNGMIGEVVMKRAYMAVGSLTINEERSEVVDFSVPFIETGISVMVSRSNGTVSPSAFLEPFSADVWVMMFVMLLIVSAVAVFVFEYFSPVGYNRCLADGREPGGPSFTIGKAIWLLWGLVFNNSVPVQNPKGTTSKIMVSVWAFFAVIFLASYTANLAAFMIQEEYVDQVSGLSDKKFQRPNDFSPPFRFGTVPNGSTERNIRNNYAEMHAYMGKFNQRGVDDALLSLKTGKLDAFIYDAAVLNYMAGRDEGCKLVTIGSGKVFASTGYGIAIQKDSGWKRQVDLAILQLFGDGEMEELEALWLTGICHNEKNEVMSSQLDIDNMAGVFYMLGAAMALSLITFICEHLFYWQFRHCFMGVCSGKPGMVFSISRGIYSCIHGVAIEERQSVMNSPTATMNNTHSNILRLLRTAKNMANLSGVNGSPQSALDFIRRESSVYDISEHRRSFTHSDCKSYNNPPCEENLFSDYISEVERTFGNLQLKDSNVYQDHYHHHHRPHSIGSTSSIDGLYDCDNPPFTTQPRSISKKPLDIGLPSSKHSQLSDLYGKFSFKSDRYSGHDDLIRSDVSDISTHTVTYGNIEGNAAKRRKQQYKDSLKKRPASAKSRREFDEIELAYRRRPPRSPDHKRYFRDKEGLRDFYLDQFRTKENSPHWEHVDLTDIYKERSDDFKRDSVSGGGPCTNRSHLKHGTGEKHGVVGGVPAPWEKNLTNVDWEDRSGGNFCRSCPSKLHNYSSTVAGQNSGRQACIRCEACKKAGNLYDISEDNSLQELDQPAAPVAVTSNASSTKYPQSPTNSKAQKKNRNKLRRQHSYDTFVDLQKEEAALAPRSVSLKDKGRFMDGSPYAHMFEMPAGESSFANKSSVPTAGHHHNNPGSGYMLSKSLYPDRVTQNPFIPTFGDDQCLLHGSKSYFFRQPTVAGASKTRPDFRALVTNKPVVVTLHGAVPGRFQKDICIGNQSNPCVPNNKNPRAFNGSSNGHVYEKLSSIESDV
Structure (SMILES),% inhibition [1],% inhibition [2],% inhibition [3],% inhibition [4],binding (heat) by ITC (GluN1b ATD),effect of the disulphide bond on ifenprodil sensitivity [5],binding (heat) by ITC (GluN2B ATD),ifenprodil sensitivity after breaking the disulphide cross-link [6],ifenprodil inhibition [7],Kd [8],% inhibition [9],% inhibition [10],ifenprodil sensitivity [11],% inhibition [12],% inhibition [13],% inhibition [14],"Kd ([8]; ITC, mixture of GluN1b and GluN2B ATD proteins, read-out: Kd)"
C[C@@H]([C@H](O)c1ccc(O)cc1)N1CCC(Cc2ccccc2)CC1 (racemic) [ifenprodil],55.7 ± 0.7%,82.1 ± 1.4%,87.7 ± 1.4%,95.2 ± 2.0%,no evidence of binding,only a minor effect,no evidence of binding,regain sensitivity to ifenprodil,almost completely abolished,320 nM,95.0 ± 2.5%,69.3 ± 2.6%,did not confer,90.0 ± 3.7%,93.0 ± 2.2%,91.5 ± 2.2%,–
C[C@@H](CN1CCC(Cc2ccccc2)CC1)[C@@H](O)c1ccc(O)cc1 [Ro 25-6981],–,–,–,–,–,–,–,–,–,–,–,–,–,–,–,–,60 nM
